Experimental data from patent US20140155389A1, “BICYCLIC INHIBITORS OF ALK” (ABBVIE INC., priority 2011, published 2014).

Molecular target: T1, ALK (Homo sapiens, UniProt Q9UM73)
T1 construct: purchased Millipore
Assay: ALK kinase assay (HTRF)
Assay type: biochemical
Details: apparent Ki from IC50 by Cheng-Prusoff; ALK (Millipore) 3 nM or 4 nM, 50 μM ATP, 1 h at room temperature; read-out: HTRF_ALK Human - Ki

T1 sequence (Q9UM73 19-1620): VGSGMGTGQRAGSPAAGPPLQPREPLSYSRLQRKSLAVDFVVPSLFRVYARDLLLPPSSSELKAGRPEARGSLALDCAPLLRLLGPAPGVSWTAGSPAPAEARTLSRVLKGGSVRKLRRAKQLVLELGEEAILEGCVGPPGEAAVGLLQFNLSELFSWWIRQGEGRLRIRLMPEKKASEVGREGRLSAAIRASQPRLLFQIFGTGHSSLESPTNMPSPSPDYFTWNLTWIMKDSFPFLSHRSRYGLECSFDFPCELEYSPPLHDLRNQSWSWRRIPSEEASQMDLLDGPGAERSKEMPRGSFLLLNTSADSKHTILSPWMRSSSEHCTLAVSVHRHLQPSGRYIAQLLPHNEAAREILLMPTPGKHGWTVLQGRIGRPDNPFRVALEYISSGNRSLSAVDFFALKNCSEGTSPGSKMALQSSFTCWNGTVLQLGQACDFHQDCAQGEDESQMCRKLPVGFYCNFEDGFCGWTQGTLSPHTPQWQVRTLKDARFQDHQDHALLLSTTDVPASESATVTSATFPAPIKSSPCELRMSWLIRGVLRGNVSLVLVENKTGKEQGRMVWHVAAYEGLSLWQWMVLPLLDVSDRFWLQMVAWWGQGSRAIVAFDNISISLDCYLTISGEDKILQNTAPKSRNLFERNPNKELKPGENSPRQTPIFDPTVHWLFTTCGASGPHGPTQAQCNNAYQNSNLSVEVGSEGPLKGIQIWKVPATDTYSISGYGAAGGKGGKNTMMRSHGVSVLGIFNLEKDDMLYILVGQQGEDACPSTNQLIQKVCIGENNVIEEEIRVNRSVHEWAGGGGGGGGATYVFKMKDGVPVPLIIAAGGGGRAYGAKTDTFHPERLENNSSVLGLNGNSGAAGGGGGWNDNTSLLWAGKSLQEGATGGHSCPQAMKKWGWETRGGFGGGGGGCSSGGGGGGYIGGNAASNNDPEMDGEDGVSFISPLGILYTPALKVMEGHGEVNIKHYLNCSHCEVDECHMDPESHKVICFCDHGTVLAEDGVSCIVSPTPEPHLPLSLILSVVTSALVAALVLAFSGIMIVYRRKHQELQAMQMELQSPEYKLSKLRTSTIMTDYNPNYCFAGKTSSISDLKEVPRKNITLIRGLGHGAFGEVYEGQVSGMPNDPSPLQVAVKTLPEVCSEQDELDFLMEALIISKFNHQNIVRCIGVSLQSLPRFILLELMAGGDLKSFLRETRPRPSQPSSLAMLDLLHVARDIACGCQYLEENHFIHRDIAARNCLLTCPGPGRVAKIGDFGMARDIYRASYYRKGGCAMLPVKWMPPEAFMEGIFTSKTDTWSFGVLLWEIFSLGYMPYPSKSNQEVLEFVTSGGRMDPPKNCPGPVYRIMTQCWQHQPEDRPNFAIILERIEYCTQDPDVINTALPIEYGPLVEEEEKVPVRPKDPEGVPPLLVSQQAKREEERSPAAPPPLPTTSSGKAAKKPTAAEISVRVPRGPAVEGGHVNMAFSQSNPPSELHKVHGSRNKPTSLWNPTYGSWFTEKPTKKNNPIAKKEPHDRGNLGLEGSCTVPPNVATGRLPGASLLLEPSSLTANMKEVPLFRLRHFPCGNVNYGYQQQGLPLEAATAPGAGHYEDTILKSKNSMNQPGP

Ki: 3 nM
Compound: COc1cc(N2CCN(C)CC2)ccc1Nc1nc(Cc2c(Cl)cccc2Cl)cc2cn[nH]c(=O)c12 [Example 30, 7-(2,6-dichlorobenzyl)-5-{[2-methoxy-4-(4-methylpiperazin-1-yl)phenyl]amino}pyrido[3,4-d]pyridazin-4(3H)-one]
